This passage reports GI50 results from PMC12389269, “Heteroaryl-Capped Hydroxamic Acid Derivatives with Varied Linkers: Synthesis and Anticancer Evaluation with Various Apoptosis Analyses in Breast Cancer Cells, Including Docking, Simulation, DFT, and ADMET Studies” (Pharmaceuticals, 2025).

For the test, the system named is MCF-7 (Human Breast Cancer Cell Line). Put plainly: SRB antiproliferative assay, MCF-7. The test is classed as cell-based. The conditions noted are these: Homo sapiens, MCF7, MCF-7, 48 h, read-out: GI50. How it is done:
Following an extensive review of the literature, we selected human breast cancer (MCF-7, MDA-MB-231) and lung cancer (A549) cell lines to evaluate the anticancer potential of the synthesized compounds, and some compounds with good anti-proliferation activity were again tested to evaluate their cytotoxic potential on A-549, MCF-7, and MDA-MB-231. The same were also tested on one non-cancerous/normal (HEK-293) cell line. All the cell lines for the required screening were developed in a suitable medium comprising 10% FBS and 2mM L-glutamine. Cancerous and non-cancerous/normal cell lines were selected for the cell proliferation and cytotoxicity assay and maintained with 5% CO2 at 37 °C in a CO2 incubator with 100% relative humidity for one complete day before the addition of experimental drugs.
Antiproliferative activity through an SRB assay was performed for all the synthesized compounds on A-549 and MCF-7 cell lines. Around 5000 cells/well were quarantined into a 96-well microtiter plate in 100 μL. The synthesized compounds were solubilized in DMSO and diluted to different concentrations before use. The final-drug-concentration aliquots were poured into microtiter wells, and the plates were incubated for 48 h in regular conditions. After adding the final drug concentration, the cells were allowed to set in place and incubated for 60 min. A total of 50 µL of SRB solution (0.4% w/v) in 1% CH3COOH was poured into each well. The plates were then incubated for 20 min at RT. During subsequent staining, the unbounded dye was removed, and the plate reader recorded the eluted bound stain at 540 nm with a 690 nm reference wavelength. The assay was performed precisely using the appropriate reagents and reaction situation, as per the reported procedure. ADR was selected as the reference drug.

Consider `COc1ccc(-c2cnn(CCCCCC(=O)NO)n2)cc1` [VI(i), N-Hydroxy-6-(4-(4-methoxyphenyl)-2H-1,2,3-triazol-2-yl)hexanamide], for which the GI50 (usually the concentration at which growth is held to half of that of the control) was < 10 µg/mL.
